Measured values reported in paper PMC4013371 (The Journal of Veterinary Medical Science, 2013).

Key:
[1] = Adverse effects during multiple CLM treatment; format: in vivo, healthy beagles (dogs); settings: CLM about 10 mg/kg PO twice daily for ten days; three healthy beagles
[2] = CLM 10 mg/kg PO, healthy beagles, not steady state; cited from earlier work

CC[C@H]1OC(=O)[C@H](C)[C@@H](O[C@H]2C[C@@](C)(OC)[C@@H](O)[C@H](C)O2)[C@H](C)[C@@H](O[C@@H]2O[C@H](C)C[C@H](N(C)C)[C@H]2O)[C@](C)(OC)C[C@@H](C)C(=O)[C@H](C)[C@@H](O)[C@]1(C)O [CLM, Clarithromycin]
adverse effects associated with CLM, such as gastrointestinal irritation [1]: no adverse effects | serum concentrations [2]: approximately 3 µg/ml
